Here are results for five molecules from ChEMBL document CHEMBL5725642, “Inhibitors of human immunodeficiency virus replication” (2018).

A short description of the test: Infectivity Assay: HIV cell culture assay¿MT-2 cells, 293T cells and the proviral DNA clone of NL4-3 virus were obtained from the NIH AIDS Research and Reference Reagent Program. MT-2 cells were propagated in RPMI 1640 media supplemented with 10% heat inactivated fetal bovine serum (FBS), 100 ug/ml penicillin G and up to 100 units/ml streptomycin. The 293T cells were propagated in DMEM media supplemented with 10% heat inactivated FBS, 100 ug/ml penicillin G and 100 ug/ml streptomycin. A recombinant NL4-3 proviral clone, in which a section of the nef gene was replaced with the Renilla luciferase gene, was used to make the reference virus used in these studies. The recombinant virus was prepared through transfection of the recombinant NL4-3 proviral clone into 293T cells using Transit-293 Transfection Reagent from Mirus Bio LLC (Madison, Wis.). Supernatent was harvested after 2-3 days after transfection, and the amount of virus present was titered in MT-2 cells using luciferase enzyme activity as a marker. Luciferase activity was quantitated using the EnduRen Live Cell Substrate from Promega (Madison, Wis.). Antiviral activities of compounds toward the recombinant virus were quantified by measuring luciferase activity in MT-2 cells infected for 4-5 days with the recombinant virus in the presence of serial dilutions of the compound.The 50% effective concentration (EC50) was calculated by using the exponential form of the median effect equation where (Fa)=1/[1+(ED50/drug conc.)m](Johnson V A, Byington R T. Infectivity Assay. In Techniques in HIV Research. ed. Aldovini A, Walker B D. 71-76. New York: Stockton Press. 1990). Format: cell-based.

Several values for one entry are separate records, joined by “and”; a condition that tells them apart may be missing. Equal entries are not always repeated.

The term EC50 denotes the midpoint of the concentration-response curve. With `CN(C(=O)[C@H](Cc1ccccc1)NC(=O)NS(=O)(=O)c1ccccc1)c1ccc2c(c1)OCO2`, the EC50 was 0.55 µM. Turning to `CN(C(=O)[C@@H](Cc1ccccc1)NC(=O)NS(=O)(=O)c1ccccc1)c1ccc2c(c1)OCO2`, the 50% effective concentration (EC50) is 55 µM. Consider `Cc1ccccc1S(=O)(=O)NC(=O)N[C@@H](CCc1ccccc1)C(=O)N(C)c1ccc2c(c1)OCO2`, for which the concentration for a half-maximal effect (EC50) is 55 µM. To `Cc1ccccc1S(=O)(=O)NC(=O)N[C@H](CCc1ccccc1)C(=O)N(C)c1ccc2c(c1)OCO2` belongs 55 µM; to `CN(C(=O)[C@H](Cc1ccccc1)NC(=O)NS(=O)(=O)c1ccccc1-c1cnn(C)c1)c1ccc2c(c1)OCO2`, 5.5 µM and 0.55 µM.
